Experimental data as given in patent US20260091020A1, “TREATMENT OF ACUTE CANNABINOID OVERDOSE” (Anebulo Pharmaceuticals, Inc., priority 2022, published 2026).

Tested on: central nervous system effects of THC
Experiment: THC challenge PD, 10.5 mg THC + 30 mg Compound 1 (Example 3)
Format: in vivo, human
Details: THC (10.5 mg) + Compound 1 (30 mg)
Description: Following the general methods of Example 1, the study design was adjusted such that groups received either (a) THC (10.5 mg)+placebo or (b) THC (10.5 mg)+Compound 1 (30 mg). Pharmacodynamic properties were then measured for Compound 1.

CC(C)(C)NC(=O)N1CC(O[C@H](c2ccc(Cl)cc2)c2ccccc2C(F)(F)F)C1 [Compound 1, (R)—N-(tert-butyl)-3-((4-chlorophenyl)(2-(trifluoromethyl)phenyl)methoxy)azetidine-1-carboxamide]
Body sway, VAS alertness and VAS feeling high vs. placebo: improvements in metrics such as body sway, VAS alertness, and VAS feeling high
